{
  "source": "ChEMBL document CHEMBL1135285",
  "about": "“Synthesis and structure-activity relationships of a novel series of HIV-1 protease inhibitors encompassing ABT-378 (Lopinavir)” (Bioorg Med Chem Lett, 2002)",
  "key": {"MT4": {"system": "MT4", "assay": "Compound was tested for antiviral activity against HIV-IIIB in MT-4 cells in presence of 50% human serum", "assay_type": "functional, cell-based"}, "[1]": {"target": "Human immunodeficiency virus type 1 protease (Human immunodeficiency virus 1) (UniProt Q72874)", "assay": "Inhibition of HIV protease at 0.5 nM"}},
  "data": [
    {"smiles": "Cc1cccc(C)c1SCC(=O)N[C@H](Cc1ccccc1)[C@H](O)C[C@@H](Cc1ccccc1)NC(=O)[C@@H](C(C)C)N1CCCNC1=O", "values": [
      {"measurement": "EC50", "setting": "MT4", "value": 4.1, "unit": "µM"},
      {"measurement": "inhibition", "setting": "[1]", "value": 55, "unit": "%"}
    ]},
    {"smiles": "CC(C)[C@H](C(=O)N[C@H](Cc1ccccc1)C[C@@H](O)[C@@H](Cc1ccccc1)NC(=O)COc1ccccc1)N1CCCNC1=O", "values": [
      {"measurement": "EC50", "setting": "MT4", "value": 1.3, "unit": "µM"},
      {"measurement": "inhibition", "setting": "[1]", "value": 67, "unit": "%"}
    ]},
    {"smiles": "Cc1cc(N)cc(C)c1OCC(=O)N[C@H](Cc1ccccc1)[C@H](O)C[C@@H](Cc1ccccc1)NC(=O)[C@@H](C(C)C)N1CCCNC1=O", "values": [
      {"measurement": "EC50", "setting": "MT4", "value": 0.16, "unit": "µM"},
      {"measurement": "inhibition", "setting": "[1]", "value": 86, "unit": "%"}
    ]},
    {"smiles": "Cc1cc(F)cc(C)c1OCC(=O)N[C@H](Cc1ccccc1)[C@H](O)C[C@@H](Cc1ccccc1)NC(=O)[C@@H](C(C)C)N1CCCNC1=O", "values": [
      {"measurement": "EC50", "setting": "MT4", "value": 0.49, "unit": "µM"},
      {"measurement": "inhibition", "setting": "[1]", "value": 90, "unit": "%"}
    ]},
    {"smiles": "Cc1cccc(C)c1CCC(=O)N[C@H](Cc1ccccc1)[C@H](O)C[C@@H](Cc1ccccc1)NC(=O)[C@@H](C(C)C)N1CCCNC1=O", "values": [
      {"measurement": "EC50", "setting": "MT4", "value": 2.6, "unit": "µM"},
      {"measurement": "inhibition", "setting": "[1]", "value": 70, "unit": "%"}
    ]},
    {"smiles": "Cc1ncnc(C)c1OCC(=O)N[C@H](Cc1ccccc1)[C@H](O)C[C@@H](Cc1ccccc1)NC(=O)[C@@H](C(C)C)N1CCCNC1=O", "values": [
      {"measurement": "EC50", "setting": "MT4", "value": 4.2, "unit": "µM"},
      {"measurement": "inhibition", "setting": "[1]", "value": 79, "unit": "%"}
    ]},
    {"smiles": "COc1cccc(OC)c1OCC(=O)N[C@H](Cc1ccccc1)[C@H](O)C[C@@H](Cc1ccccc1)NC(=O)[C@@H](C(C)C)N1CCCNC1=O", "values": [
      {"measurement": "EC50", "setting": "MT4", "value": 14, "unit": "µM"},
      {"measurement": "inhibition", "setting": "[1]", "value": 38, "unit": "%"}
    ]},
    {"smiles": "Cc1cc(C)cc(OCC(=O)N[C@H](Cc2ccccc2)[C@H](O)C[C@@H](Cc2ccccc2)NC(=O)[C@@H](C(C)C)N2CCCNC2=O)c1", "values": [
      {"measurement": "EC50", "setting": "MT4", "value": 38, "unit": "µM"},
      {"measurement": "inhibition", "setting": "[1]", "value": 37, "unit": "%"}
    ]},
    {"smiles": "Cc1cc(C)c(OCC(=O)N[C@H](Cc2ccccc2)[C@H](O)C[C@@H](Cc2ccccc2)NC(=O)[C@@H](C(C)C)N2CCCNC2=O)c(C)c1", "values": [
      {"measurement": "EC50", "setting": "MT4", "value": 0.39, "unit": "µM"},
      {"measurement": "inhibition", "setting": "[1]", "value": 85, "unit": "%"}
    ]},
    {"smiles": "CC(C)[C@H](C(=O)N[C@H](Cc1ccccc1)C[C@@H](O)[C@@H](Cc1ccccc1)NC(=O)COc1c(Cl)cccc1Cl)N1CCCNC1=O", "values": [
      {"measurement": "EC50", "setting": "MT4", "value": 2.8, "unit": "µM"},
      {"measurement": "inhibition", "setting": "[1]", "value": 87, "unit": "%"}
    ]},
    {"smiles": "Cc1ccccc1OCC(=O)N[C@H](Cc1ccccc1)[C@H](O)C[C@@H](Cc1ccccc1)NC(=O)[C@@H](C(C)C)N1CCCNC1=O", "values": [
      {"measurement": "EC50", "setting": "MT4", "value": 0.43, "unit": "µM"},
      {"measurement": "inhibition", "setting": "[1]", "value": 84, "unit": "%"}
    ]},
    {"smiles": "Cc1ccnc(C)c1OCC(=O)N[C@H](Cc1ccccc1)[C@H](O)C[C@@H](Cc1ccccc1)NC(=O)[C@@H](C(C)C)N1CCCNC1=O", "values": [
      {"measurement": "EC50", "setting": "MT4", "value": 0.77, "unit": "µM"},
      {"measurement": "inhibition", "setting": "[1]", "value": 75, "unit": "%"}
    ]},
    {"smiles": "Cc1cccc(C)c1OCC(=O)N[C@@H](Cc1ccccc1)[C@@H](O)C[C@H](Cc1ccccc1)NC(=O)[C@H](C(C)C)N1CCCNC1=O", "note": "(single isomer, unassigned) [LOPINAVIR]", "values": [
      {"measurement": "EC50", "setting": "MT4", "value": 0.1, "unit": "µM"}
    ]}
  ]
}
